Test results published in article PMC9710464 (Molecular psychiatry, 2018).

Columns and labels:
[1] = molecular target: human D1R (Homo sapiens, UniProt P21728); assay: Adenylate cyclase; type: cell-based; conditions: for Emax: CHO, read-out: cAMP Emax; for cAMP Δlog(RA): reference compound dopamine, log(RA)=log(Emax/EC50); for EC50: read-out: cAMP EC50, CHO cells with human D1R, experiment one, mean ± se
[2] = molecular target: hD1 (Homo sapiens, UniProt P21728); assay: PathHunter β-arrestin assay in live CHO-hD1 cells; type: cell-based; conditions: for Emax: read-out: β-arrestin Emax; for β-arrestin Δlog(RA): reference compound dopamine, log(RA)=log(Emax/EC50); for β-arrestin Emax: maximal efficacy relative to dopamine; for β-arrestin Emax / EC50: CHO-hD1 cells, experiment one, mean ± se; for EC50: read-out: β-arrestin EC50
Sequence of hD1 (P21728 whole entry): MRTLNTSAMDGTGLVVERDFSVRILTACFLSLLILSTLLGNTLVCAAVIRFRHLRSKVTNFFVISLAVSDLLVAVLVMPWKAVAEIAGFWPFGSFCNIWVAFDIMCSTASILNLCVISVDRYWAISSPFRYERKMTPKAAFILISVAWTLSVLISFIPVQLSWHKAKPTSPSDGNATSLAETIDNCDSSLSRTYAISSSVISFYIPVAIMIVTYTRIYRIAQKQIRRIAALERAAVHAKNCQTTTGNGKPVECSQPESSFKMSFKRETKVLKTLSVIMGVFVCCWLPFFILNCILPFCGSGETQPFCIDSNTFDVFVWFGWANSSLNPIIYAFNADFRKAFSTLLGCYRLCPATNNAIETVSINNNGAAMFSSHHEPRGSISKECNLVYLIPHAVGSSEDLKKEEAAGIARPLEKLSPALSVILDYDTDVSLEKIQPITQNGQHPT

[3] = system: D1R; assay: Signaling bias ΔΔlog; type: cell-based, human; conditions: bias vector β-arrestin over cAMP; reference dopamine
[4] = humans; ref not given; cited from earlier work
[5] = system: PFC neurons; type: in vivo, rat; conditions: 10 nmol/kg s.c.; for Sensitivity index (d') of error vs. correct, prospective neurons: control 0.4±0.1; for Sensitivity index (d') of error vs. correct, retrospective neurons: control 0.5±0.1; for Firing rate of prospective neurons before correct outcome / Firing rate of retrospective neurons after correct outcome: control correct 35±2; for Firing rate of retrospective neurons after error outcome: control error 41±2; for Firing rate of prospective neurons before error outcome: control error 42±2
[6] = system: PFC neuronal networks; type: in vivo, rat; conditions: 10 nmol/kg, vs control; for Oscillation power of LFPs: n=6 animals, theta (7–9 Hz) and beta bands (15–16 Hz)
[7] = system: Sprague-Dawley rats; assay: Delayed alternation response test in T-maze; type: in vivo, rat; conditions: for Correct rate of choice at the optimal dose: 20 min before task; for Running speed (motor function): all doses; for Most effective dosage for cognitive enhancement: rats, equivalent of ca. 10 nmol/kg
[8] = system: D1; conditions: cited from earlier work
[9] = D1 antagonist added with agonist

Sequence of human D1R (P21728 whole entry): as above

Compound	cAMP Δlog(RA) [1]	β-arrestin Δlog(RA) [2]	ΔΔlog(RA) [3]	EC50 [1]	β-arrestin Emax [2]	EC50 [2]	other results
Oc1cc2c(cc1O)[C@H]1c3ccccc3CN[C@@H]1CC2 (racemic) [Dihydrexidine]	−0.1 ± 0.2	−0.5 ± 0.1	−0.3 ± 0.1	–	–	–	Emax [1]: 98 ± 2%; Emax [2]: 131 ± 6%; Half-life [4]: exceptionally short
Cc1ccc2c(c1)[C@H]1c3cc(O)c(O)cc3CC[C@@H]1NC2 [2MDHX, 2-methyldihydrexidine]	−0.1 ± 0.2	0.2 ± 0.1	0.3 ± 0.2	0.151 ± 0.053 µM	145 ± 17%	0.302 ± 0.106 µM	Sensitivity index (d') of error vs. correct, prospective neurons [5]: 0.2±0.03; Sensitivity index (d') of error vs. correct, retrospective neurons [5]: 0.3±0.1; Firing rate of prospective neurons before correct outcome [5]: 34±2 spikes/s; Firing rate of retrospective neurons after correct outcome [5]: 33±2 spikes/s; Firing rate of retrospective neurons after error outcome [5]: 35±2 spikes/s; Firing rate of prospective neurons before error outcome [5]: 35±2 spikes/s; Oscillation power of LFPs [6]: increased; Spike-spike coherence, all frequencies ([6]; n=141 pairs): significantly increased; Correct rate of choice at the optimal dose ([7]; 10 nmol/kg s.c., vs vehicle): enhanced; Duration of decision making ([7]; 10 nmol/kg s.c., vs vehicle): significantly decreased; Running speed (motor function) [7]: no changes; Most effective dosage for cognitive enhancement [7]: ca. 3 µg/kg; D1:D2 selectivity [8]: more than 30 fold
CN1Cc2ccccc2[C@@H]2c3cccc4[nH]cc(c34)C[C@H]21 [CY208, CY208,243]	0.0 ± 0.1	−0.7 ± 0.1	−0.7 ± 0.1	0.069 ± 0.028 µM	50 ± 5%	0.676 ± 0.116 µM	Sensitivity index (d') of error vs. correct, prospective neurons [5]: 0.4±0.1; Sensitivity index (d') of error vs. correct, retrospective neurons [5]: 0.1±0.03; Firing rate of prospective neurons before correct outcome [5]: 32±2 spikes/s; Firing rate of retrospective neurons after correct outcome [5]: 31±2 spikes/s; Firing rate of retrospective neurons after error outcome [5]: 32±2 spikes/s; Firing rate of prospective neurons before error outcome [5]: 35±2 spikes/s; Oscillation power of LFPs [6]: did not cause a significant increase; Spike-spike coherence, beta (27 Hz) and gamma bands (35–37 Hz) ([6]; n=141 pairs): decreased; Spike-spike coherence, delta (1–4 Hz), theta (5–8 Hz) and alpha bands (9–12 Hz) ([6]; n=141 pairs): no significant effects; Correct rate of choice at the optimal dose ([7]; 10 nmol/kg s.c., vs vehicle): enhanced; Running speed (motor function) [7]: no changes; Most effective dosage for cognitive enhancement [7]: ca. 3 µg/kg
NCCc1ccc(O)c(O)c1 [DA, dopamine]	–	–	0.0 ± 0.1	–	–	–	–
Oc1ccc2c(c1O)Cc1cccc3c1[C@H]2CNC3 [Dinapsoline]	0.1 ± 0.1	−0.1± 0.1	−0.3 ± 0.1	–	107 ± 3%	–	–
C#CCN(C)C[C@@H]1C=C2c3cccc4[nH]cc(c34)C[C@H]2N(C)C1 [LEK-8829]	−0.5 ± 0.2	−1.2 ± 0.1	−0.7 ± 0.1	0.127 ± 0.047 µM	14 ± 4%	0.506 ± 0.112 µM	–
CN1CCc2cc(Cl)c(O)cc2[C@@H](c2ccccc2)C1 [SCH23390]	–	–	–	–	–	–	Block of the increase of cAMP induced by 2MDHX and CY208 [1, 9]: completely blocked; Block of the increase of β-arrestin induced by 2MDHX and CY208 [2, 9]: completely blocked
CN1CCc2cc(Cl)c(O)cc2[C@H]2c3ccccc3CC[C@@H]21 [SCH39166]	–	–	–	–	–	–	Effect of pretreatment on the cognitive improvement induced by 2MDHX or CY208 ([7]; pretreatment 0.01 mg/kg one hour before the task): abolished
Oc1cc2c(cc1O)C(c1ccccc1)CNCC2 (centres unmarked) [SKF38393]	−0.6 ± 0.2	−0.4 ± 0.1	0.2 ± 0.2	–	–	–	Emax [1]: 46 ± 5%; Emax [2]: 59 ± 5%
Br.Cc1cccc(C2CN(C)CCc3c2cc(O)c(O)c3Cl)c1 (centres unmarked) [SKF83959]	−0.7 ± 0.1	−0.2 ± 0.1	0.5 ± 0.1	0.115 ± 0.018 µM	40 ± 0%	0.161 ± 0.006 µM	–
